This is an account of results in ChEMBL document CHEMBL4043281, “Development of a peptide-based inducer of protein degradation targeting NOTCH1” (Bioorg Med Chem Lett, 2017).

Structures are written as SMILES. The source made the active and inactive calls. No cut-off for these calls is given here. Positions of bridges follow the written chain, without caps; N, C: chain ends. Non-standard residues stand in square brackets, D forms with d. Residues, ends and D or L forms follow the SMILES beside them. Dip = N[C@H](C(=O)O)C(c1ccccc1)c1ccccc1; Chg = N[C@H](C(=O)O)C1CCCCC1; S5 = C=CCCC[C@](C)(N)C(=O)O; NMeA = CN[C@@H](C)C(=O)O; AEEA = NCCOCCOCC(=O)O; βAla = NCCC(=O)O

Data set [1] deals with MOLT-4. Briefly: Induction of CSL protein degradation in human MOLT4 cells assessed as ratio of CSL to lamin protein level at 20 uM after 6 hrs by Western blot analysis (reference value: 100%). The class given is functional.
Data set [2] relates to MOLT-4. The experiment in a line: Induction of CSL protein degradation in human MOLT4 cells assessed as ratio of CSL to lamin protein level at 100 uM after 6 hrs by Western blot analysis (reference value: 100%). The class given is functional.
In data set [3] the test system is MOLT-4. Briefly: Cytotoxicity against human MOLT4 cells at >100 uM. The class given is cell-based.
Data set [4] relates to MOLT-4. Briefly: Induction of CSL protein degradation in human MOLT4 cells assessed as ratio of CSL to lamin protein level at 50 uM after 6 hrs by Western blot analysis (reference value: 100%). The class given is functional.
The species named for data set [5] is Homo sapiens. The experiment in a line: Induction of IAP-mediated NOTCH1 protein degradation in human MOLT4 cells assessed as ratio of NOTCH1 to lamin protein level at 100 uM after 6 hrs by Western blot analysis (reference value: 100%). It counts as cell-based.
For data set [6], the species on record is Homo sapiens. The experiment in a line: Induction of IAP-mediated NOTCH1 protein degradation in human MOLT4 cells assessed as ratio of NOTCH1 to lamin protein level at 50 uM after 6 hrs by Western blot analysis (reference value: 100%). The class given is cell-based.
For data set [7], the species on record is Homo sapiens. The experiment in a line: Induction of IAP-mediated NOTCH1 protein degradation in human MOLT4 cells assessed as ratio of NOTCH1 to lamin protein level at 20 uM after 6 hrs by Western blot analysis (reference value: 100%). It counts as cell-based. On the technique in general: In western blotting, separated proteins are transferred to a membrane and probed.

Data set [8] has as its system MOLT-4. Briefly: Induction of CSL protein degradation in human MOLT4 cells assessed as ratio of CSL to lamin protein level at 80 uM after 6 hrs by Western blot analysis (reference value: 100%). The class given is functional.
Data set [9] is filed under the species Homo sapiens. The experiment in a line: Induction of IAP-mediated NOTCH1 protein degradation in human MOLT4 cells assessed as ratio of NOTCH1 to lamin protein level at 60 uM after 6 hrs by Western blot analysis (reference value: 100%). It counts as cell-based.
Data set [10] is filed under the species Homo sapiens. The experiment in a line: Antagonist activity IAP in human MOLT4 cells assessed as reduction in cIAP1 protein level at 50 to 80 uM after 6 hrs by Western blot analysis. It counts as cell-based.
The test system of data set [11] is MOLT-4. The experiment in a line: Induction of CSL protein degradation in human MOLT4 cells assessed as ratio of CSL to lamin protein level at 70 uM after 6 hrs by Western blot analysis (reference value: 100%). The class given is functional.
Data set [12] relates to MOLT-4. Briefly: Induction of CSL protein degradation in human MOLT4 cells assessed as ratio of CSL to lamin protein level at 60 uM after 6 hrs by Western blot analysis (reference value: 100%). The class given is functional.
Data set [13] is filed under the species Homo sapiens. Briefly: Induction of IAP-mediated NOTCH1 protein degradation in human MOLT4 cells assessed as ratio of NOTCH1 to lamin protein level at 80 uM after 6 hrs by Western blot analysis (reference value: 100%). The class given is cell-based.
For data set [14], the species on record is Homo sapiens. Briefly: Induction of IAP-mediated NOTCH1 protein degradation in human MOLT4 cells assessed as ratio of NOTCH1 to lamin protein level at 70 uM after 6 hrs by Western blot analysis (reference value: 100%). It counts as cell-based.

For the compound `CC[C@H](C)[C@H](NC(=O)[C@H](CCCNC(=N)N)NC(=O)[C@H](CCCNC(=N)N)NC(=O)[C@H](CCCNC(=N)N)NC(=O)[C@H](CC(C)C)NC(=O)[C@H](CCCNC(=N)N)NC(=O)[C@H](CCC(=O)O)NC(=O)CCNC(=O)COCCOCCNC(=O)[C@@H](NC(=O)[C@@H]1CCCN1C(=O)[C@@H](NC(=O)[C@H](C)NC)C1CCCCC1)C(c1ccccc1)c1ccccc1)C(=O)N[C@@H](CCC(=O)O)C(=O)N[C@@H](CC(C)C)C(=O)N[C@@H](CS)C(=O)N[C@@H](CCCNC(=N)N)C(=O)N[C@@H](CCCNC(=N)N)C(=O)N[C@@H](Cc1cnc[nH]1)C(=O)N[C@@H](Cc1cnc[nH]1)C(=O)N[C@@H](CO)C(=O)N[C@H](C(=O)O)[C@@H](C)O` (H-[NMeA][Chg]P[Dip][AEEA][βAla]ERLRRRIELCRRHHST-OH), the Ratio was found to be 115% in the data set with MOLT-4 [1]; 99% in the data set on MOLT-4 [2]; 108% with MOLT-4 [4]; 85% in the data set listed under Homo sapiens [5]; 100% in the data set listed under Homo sapiens [6]; 116% in the data set filed under Homo sapiens [7]. The Activity result with MOLT-4 [3] was “Toxic”.
Turning to `CC[C@H](C)[C@H](NC(=O)[C@H](CCCNC(=N)N)NC(=O)[C@H](CCCNC(=N)N)NC(=O)[C@H](CCCNC(=N)N)NC(=O)[C@H](CC(C)C)NC(=O)[C@H](CCCNC(=N)N)NC(=O)[C@H](CCC(=O)O)NC(=O)CCNC(=O)COCCOCCNC(=O)[C@@H](NC(=O)[C@@H]1CCCN1C(=O)[C@@H](NC(=O)[C@H](C)NC)C1CCCCC1)C(c1ccccc1)c1ccccc1)C(=O)N[C@@]1(C)CCC/C=C\CCC[C@@](C)(C(=O)N[C@@H](CCCNC(=N)N)C(=O)N[C@@H](Cc2cnc[nH]2)C(=O)N[C@@H](Cc2cnc[nH]2)C(=O)N[C@@H](CO)C(=O)N[C@H](C(=O)O)[C@@H](C)O)NC(=O)[C@H](CS)NC(=O)[C@H](CC(C)C)NC1=O` (H-[NMeA][Chg]P[Dip][AEEA][βAla]ERLRRRI[S5]LC[S5]RHHST-OH; staple (Z) 14-17), the Ratio in the data set on MOLT-4 [8] stood at 102%; in the data set with MOLT-4 [1], 105%; in the data set filed under Homo sapiens [9] it was 106%; with MOLT-4 [2], 115%; with MOLT-4 [11] it was 115%; in the data set on MOLT-4 [12], 104%. For the same compound, the Ratio in the data set with MOLT-4 [4] was 105 - 108%; in the data set listed under Homo sapiens [5] it was 74%; in the data set filed under Homo sapiens [6], 87 to 99%; in the data set listed under Homo sapiens [13] it was 77%; in the data set listed under Homo sapiens [7], 105%; in the data set listed under Homo sapiens [14], 99%. In the data set listed under Homo sapiens [10], the inhibition result was “Active”. In addition, the Activity entry in the data set on MOLT-4 [3] is “Toxic”.
As for `CC[C@H](C)[C@H](NC(=O)[C@H](CCCNC(=N)N)NC(=O)[C@H](CCCNC(=N)N)NC(=O)[C@H](CCCNC(=N)N)NC(=O)[C@H](CC(C)C)NC(=O)[C@H](CCCNC(=N)N)NC(=O)[C@H](CCC(=O)O)NC(=O)CCN)C(=O)N[C@@H](CCC(=O)O)C(=O)N[C@@H](CC(C)C)C(=O)N[C@@H](CS)C(=O)N[C@@H](CCCNC(=N)N)C(=O)N[C@@H](CCCNC(=N)N)C(=O)N[C@@H](Cc1cnc[nH]1)C(=O)N[C@@H](Cc1cnc[nH]1)C(=O)N[C@@H](CO)C(=O)N[C@H](C(=O)O)[C@@H](C)O` (H-[βAla]ERLRRRIELCRRHHST-OH), the Ratio with MOLT-4 [1] was found to be 107%; with MOLT-4 [2] it was 113%; in the data set with MOLT-4 [4], 115%; in the data set filed under Homo sapiens [5], 108%; in the data set listed under Homo sapiens [6], 118%; in the data set filed under Homo sapiens [7], 101%. Also, the Activity entry in the data set with MOLT-4 [3] is recorded as “Toxic”.
Turning to `CC[C@H](C)[C@H](NC(=O)[C@H](CCCNC(=N)N)NC(=O)[C@H](CCCNC(=N)N)NC(=O)[C@H](CCCNC(=N)N)NC(=O)[C@H](CC(C)C)NC(=O)[C@H](CCCNC(=N)N)NC(=O)[C@H](CCC(=O)O)NC(=O)CCN)C(=O)N[C@@]1(C)CCC/C=C\CCC[C@@](C)(C(=O)N[C@@H](CCCNC(=N)N)C(=O)N[C@@H](Cc2cnc[nH]2)C(=O)N[C@@H](Cc2cnc[nH]2)C(=O)N[C@@H](CO)C(=O)N[C@H](C(=O)O)[C@@H](C)O)NC(=O)[C@H](CS)NC(=O)[C@H](CC(C)C)NC1=O` (H-[βAla]ERLRRRI[S5]LC[S5]RHHST-OH; staple (Z) 9-12), the Ratio with MOLT-4 [1] turned out to be 105%; with MOLT-4 [2], 93%; with MOLT-4 [4] it was 94%; in the data set filed under Homo sapiens [5], 103%; in the data set filed under Homo sapiens [6] it was 105%; in the data set listed under Homo sapiens [7], 101%. The Activity result with MOLT-4 [3] is listed as “Toxic”.
